Experimental data as given in patent US20230227435A1, “SMALL MOLECULE MODULATORS OF IL-17” (LEO PHARMA A/S, priority 2020, published 2023).
pEC50: −log10 of the molar value.

These compounds were tested against T1, human IL-17AA (Homo sapiens, UniProt Q16552) (assay: IL-8 release assay in human epithelial keratinocytes adult (HEKa)). Settings: HEKa cells; 3 ng/mL HEK-human IL-17AA + 10 ng/mL human TNFalpha; 68-72 hours; IL-8 by HTRF.
T1 construct: host or cells: HEK (human embryonic kidney) cells
T1 sequence (Q16552 24-155) 1: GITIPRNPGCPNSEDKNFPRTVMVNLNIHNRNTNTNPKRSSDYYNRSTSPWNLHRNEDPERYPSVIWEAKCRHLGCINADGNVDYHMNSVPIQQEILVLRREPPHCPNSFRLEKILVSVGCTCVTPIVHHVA
T1 sequence (Q16552 24-155) 2: T1 sequence (Q16552 24-155) 1
Type: cell-based
Protocol: Example 8: IL-8 Release Assay in Human Epithelial Keratinocytes Adult (HEKa)
Keratinocytes were seeded at 3500 cells/well in 384-well ViewPlates (Perkin Elmer) in Epilife medium (Thermo Fisher) containing human keratinocyte growth supplement (HKGS) without hydrocortisone and incubated in a humid incubator at 37° C., 5% CO2, overnight. The following day growth medium was removed and 25 μl fresh Epilife medium was added. 75 nL test compound in100% DMSO was added into each well reserved for test compounds, by the use of acoustic pipetting. The remaining wells received an equal volume of DMSO only, as vehicle control, or terfenadine in DMSO, as a positive control for any cytotoxic compounds. Subsequently, another 25 μL Epilife medium was added to each well. Finally, wells containing test compounds and wells prepared to yield maximum stimulation received 25 μL of 9 ng/mL recombinant, human embryonic kidney cell (HEK)-derived human IL-17AA+30 ng/mL human TNF-alpha, in Epilife medium. Wells prepared to define 100% inhibition of IL-17 effects received 25 μL of 30 ng/mL human TNF-alpha alone, in Epilife medium. Final concentrations were 3 ng/mL HEK-human IL-17AA+10 ng/mL human TNFalpha (maximum stimulation) and 10 ng/mL human TNFalpha alone (100% inhibition, Emax), respectively. Cells were incubated for 68-72 hours in the incubator. IL-8 released from the cells was measured by the use of a commercial homogenous time-resolved fluorescence (HTRF) assay (CisBio). 2 μL cell culture supernatant was transferred to a 384-well Proxiplate. 5 μL HTRF reagent was added and the plates were incubated sealed in the dark for 3-22 hours at room temperature. Time-resolved fluorescence was read at 665 vs 620 nm, with excitation at 320 nm, and IL-8 levels were calculated as percent of controls. Reduction of the amount of secreted IL-8 indicates decreased IL-17 signaling. Concentration response curves were fitted by the use of a four-parameter logistic equation. Relative IC50 and Emax were reported from curves showing acceptable fit (r^2>0.9). Cytotoxicity was measured in the cell-containing Viewplates following addition of 7 μL PrestoBlue (Thermo Fisher) and incubation for 2.5-3 hours at room temperature, by measuring fluorescence at 615 nm (excitation at 535 nm). Fluorescence was directly proportional to the amount of metabolic activity. Reduction of fluorescence signal indicated cytotoxicity.
Compounds of the present invention were tested in the IL-8 release assay in human epithelial keratinocytes.

Row | Rel EC50 IL-8 release assay | SMILES
1 | no | Cc1cn(C)nc1-c1nnc(C(C(=O)Nc2ccc(-c3c(C)n[nH]c3C)cc2)C(C2CC2)C2CC2)[nH]1 (stereo not drawn) [Example 46, 3,3-dicyclopropyl-N-[4-(3,5-dimethyl-1H-pyrazol-4-yl)phenyl]-2-[5-(1,4-dimethylpyrazol-3-yl)-4H-1,2,4-triazol-3-yl]propanamide]

Same assay, conditions: HEKa cells; 3 ng/mL HEK-human IL-17AA + 10 ng/mL human TNFalpha; 68-72 hours; IL-8 by HTRF; read-out: Rel EC50 IL-8 release assay

Row | pEC50 | SMILES
2 | 6.54 | Cc1n[nH]c(C)c1-c1ccc(NC(=O)C(c2nnc(-c3ccccc3)[nH]2)C(C2CC2)C2CC2)cc1 (stereo not drawn) [Example 1, 3,3-dicyclopropyl-N-[4-(3,5-dimethyl-1H-pyrazol-4-yl)phenyl]-2-(5-phenyl-4H-1,2,4-triazol-3-yl)propanamide]
3 | 6.19 | COc1cc(-c2nnc(C(C(=O)Nc3ccc(-c4c(C)n[nH]c4C)cc3)C3CCC(F)(F)CC3)[nH]2)ccn1 (stereo not drawn) [Example 66, 2-(4,4-difluorocyclohexyl)-N-[4-(3,5-dimethyl-1H-pyrazol-4-yl)phenyl]-2-[5-(2-methoxy-4-pyridyl)-4H-1,2,4-triazol-3-yl]acetamide]
4 | 6.28 | Cc1cc(-c2nnc(C(C(=O)Nc3ccc(-c4c(C)n[nH]c4C)cc3)C3CCC(F)(F)CC3)[nH]2)ccn1 (stereo not drawn) [Example 65, 2-(4,4-difluorocyclohexyl)-N-[4-(3,5-dimethyl-1H-pyrazol-4-yl)phenyl]-2-[5-(2-methyl-4-pyridyl)-4H-1,2,4-triazol-3-yl]acetamide]
5 | 5.80 | Cc1n[nH]c(C)c1-c1ccc(NC(=O)C(c2nnc(C3CCOC3)[nH]2)C(C2CC2)C2CC2)cc1 (stereo not drawn) [Example 62, 3,3-dicyclopropyl-N-[4-(3,5-dimethyl-1H-pyrazol-4-yl)phenyl]-2-(5-tetrahydrofuran-3-yl-4H-1,2,4-triazol-3-yl)propanamide]
6 | 5.51 | Cc1n[nH]c(C)c1-c1ccc(NC(=O)C(c2nc(-c3ccccc3)c(Cl)[nH]2)C(C2CC2)C2CC2)cc1 (stereo not drawn) [Example 3, 2-(5-chloro-4-phenyl-1H-imidazol-2-yl)-3,3-dicyclopropyl-N-[4-(3,5-dimethyl-1H-pyrazol-4-yl)phenyl]propanamide]
7 | 6.35 | COc1ccccc1-c1cnc(C(C(=O)Nc2ccc(-c3c(C)n[nH]c3C)cc2)C(C2CC2)C2CC2)[nH]1 (stereo not drawn) [Example 9, 3,3-dicyclopropyl-N-[4-(3,5-dimethyl-1H-pyrazol-4-yl)phenyl]-2-[5-(2-methoxyphenyl)-1H-imidazol-2-yl]propanamide]
8 | 6.07 | Cc1n[nH]c(C)c1-c1ccc(NC(=O)C(c2nnc(-c3cnnn3C)[nH]2)C(C2CC2)C2CC2)cc1 (stereo not drawn) [Example 40, 3,3-dicyclopropyl-N-[4-(3,5-dimethyl-1H-pyrazol-4-yl)phenyl]-2-[5-(3-methyltriazol-4-yl)-4H-1,2,4-triazol-3-yl]propanamide]
9 | 6.52 | Cc1n[nH]c(C)c1-c1ccc(NC(=O)C(c2nnc(-c3c(F)cnn3C)[nH]2)C(C2CC2)C2CC2)cc1 (stereo not drawn) [Example 14, 3,3-dicyclopropyl-N-[4-(3,5-dimethyl-1H-pyrazol-4-yl)phenyl]-2-[5-(4-fluoro-2-methyl-pyrazol-3-yl)-4H-1,2,4-triazol-3-yl]propanamide]
10 | 6.85 | Cc1n[nH]c(C)c1-c1ccc(NC(=O)C(c2nnc(-c3ccnn3C(C)C)[nH]2)C(C2CC2)C2CC2)c(F)c1 (stereo not drawn) [Example 12, 3,3-dicyclopropyl-N-[4-(3,5-dimethyl-1H-pyrazol-4-yl)-2-fluoro-phenyl]-2-[5-(2-isopropylpyrazol-3-yl)-4H-1,2,4-triazol-3-yl]propanamide]
11 | < 6.20 | Cc1n[nH]c(C)c1-c1ccc(NC(=O)C(c2nnc(-c3ccnn3C(C)C)[nH]2)C(C2CC2)C2CC2)cc1 (single isomer, unassigned) [Example 71, 3,3-dicyclopropyl-N-[4-(3,5-dimethyl-1H-pyrazol-4-yl)phenyl]-2-[5-(2-isopropylpyrazol-3-yl)-4H-1,2,4-triazol-3-yl]propanamide]
12 | 7.57 | Cc1n[nH]c(C)c1-c1ccc(NC(=O)C(c2nnc(-c3ccnc(C(F)F)c3)[nH]2)C(C2CC2)C2CC2)cc1 (stereo not drawn) [Example 55, 3,3-dicyclopropyl-2-[5-[2-(difluoromethyl)-4-pyridyl]-4H-1,2,4-triazol-3-yl]-N-[4-(3,5-dimethyl-1H-pyrazol-4-yl)phenyl]propanamide]
13 | 6.74 | Cc1ncccc1-c1nnc(C(C(=O)Nc2ccc(-c3c(C)n[nH]c3C)cc2)C(C2CC2)C2CC2)[nH]1 (stereo not drawn) [Example 52, 3,3-dicyclopropyl-N-[4-(3,5-dimethyl-1H-pyrazol-4-yl)phenyl]-2-[5-(2-methyl-3-pyridyl)-4H-1,2,4-triazol-3-yl]propanamide]
14 | 5.57 | Cc1n[nH]c(C)c1-c1ccc(NC(=O)C(c2nnc(C3CCOCC3)[nH]2)C(C2CC2)C2CC2)cc1 (stereo not drawn) [Example 61, 3,3-dicyclopropyl-N-[4-(3,5-dimethyl-1H-pyrazol-4-yl)phenyl]-2-(5-tetrahydropyran-4-yl-4H-1,2,4-triazol-3-yl)propanamide]
15 | 7.23 | Cc1n[nH]c(C)c1-c1ccc(NC(=O)C(c2nnc(-c3ccnn3CCCO)[nH]2)C(C2CC2)C2CC2)cc1 (stereo not drawn) [Example 57, 3,3-dicyclopropyl-N-[4-(3,5-dimethyl-1H-pyrazol-4-yl)phenyl]-2-[5-[2-(3-hydroxypropyl)pyrazol-3-yl]-4H-1,2,4-triazol-3-yl]propanamide]
16 | 7.12 | Cc1n[nH]c(C)c1-c1ccc(NC(=O)C(c2nnc(-c3ccnc(C(F)(F)F)c3)[nH]2)C(C2CC2)C2CC2)cc1 (stereo not drawn) [Example 54, 3,3-dicyclopropyl-N-[4-(3,5-dimethyl-1H-pyrazol-4-yl)phenyl]-2-[5-[2-(trifluoromethyl)-4-pyridyl]-4H-1,2,4-triazol-3-yl]propanamide]
17 | 5.54 | Cc1n[nH]c(C)c1-c1ccc(NC(=O)C(c2nnc[nH]2)C(C2CC2)C2CC2)cc1 (stereo not drawn) [Example 4, 3,3-dicyclopropyl-N-[4-(3,5-dimethyl-1H-pyrazol-4-yl)phenyl]-2-(4H-1,2,4-triazol-3-yl)propanamide]
18 | 6.37 | COc1ccc(-c2nnc(C(C(=O)Nc3ccc(-c4c(C)n[nH]c4C)cc3)C(C3CC3)C3CC3)[nH]2)cn1 (stereo not drawn) [Example 34, 3,3-dicyclopropyl-N-[4-(3,5-dimethyl-1H-pyrazol-4-yl)phenyl]-2-[5-(6-methoxy-3-pyridyl)-4H-1,2,4-triazol-3-yl]propanamide]
19 | < 5.49 | Cc1n[nH]c(C)c1-c1ccc(NC(=O)C(c2nnc(-c3cnoc3C)[nH]2)C(C2CC2)C2CC2)cc1 (stereo not drawn) [Example 41, 3,3-dicyclopropyl-N-[4-(3,5-dimethyl-1H-pyrazol-4-yl)phenyl]-2-[5-(5-methylisoxazol-4-yl)-4H-1,2,4-triazol-3-yl]propanamide]
20 | 7.49 | Cc1n[nH]c(C)c1-c1ccc(NC(=O)C(c2nnc(-c3ccnn3C3CCC3)[nH]2)C(C2CC2)C2CC2)cc1 (stereo not drawn) [Example 27, 2-[5-(2-cyclobutylpyrazol-3-yl)-4H-1,2,4-triazol-3-yl]-3,3-dicyclopropyl-N-[4-(3,5-dimethyl-1H-pyrazol-4-yl)phenyl]propanamide]
21 | 6.41 | Cc1n[nH]c(C)c1-c1ccc(NC(=O)C(c2nnc(-c3ccccc3F)[nH]2)C(C2CC2)C2CC2)cc1 (stereo not drawn) [Example 5, 3,3-dicyclopropyl-N-[4-(3,5-dimethyl-1H-pyrazol-4-yl)phenyl]-2-[5-(2-fluorophenyl)-4H-1,2,4-triazol-3-yl]propanamide]
